# Patent US9980943B2, “Methods of treating muscular dystrophy” (BOARD OF REGENTS OF THE NEVADA SYSTEM OF HIGHER EDUCATION, …, priority 2013, dated 2018)
# Assays:
# Format in all cases: cell-based, mouse
# [1] = system: α7 integrin (LacZ reporter in α7+/LacZ myotubes); assay: Myotube α7 integrin FDG assay (Burkin assay in myotubes, 96-well); conditions: for Burkin Assay in Myotubes, value relative to DMSO: SU9516 analogs, 96-well, N=3-6
# [2] = system: β-galactosidase in CMV-LacZ C2C12 myotubes; assay: CMV-LacZ secondary screen in C2C12 myotubes (β-Gal stabilizing assay); conditions: for CMV-LACZ in Myotubes, value relative to DMSO: SU9516 analogs, C2C12 CMV-LacZ, N=2; for CMV-LACZ in Myotubes, signal relative to DMSO: C2C12 CMV-LacZ myotubes, fold relative to DMSO
# Procedure, shortened: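 Stable CMV-LacZ C2C12 clone; six-point curve 0.5–40 μM; duplicates.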
# [3] = system: α7 integrin (LacZ reporter in α7βgal+/− myoblasts); assay: Myoblast α7+/LacZ integrin FDG assay (Burkin assay in myoblasts, 96-well); conditions: 96-well; for Burkin Assay in Myoblasts, value relative to DMSO: SU9516 analogs, N=3-6; for Burkin Assay in Myoblasts, signal relative to DMSO: α7+/LacZ myoblasts
# [4] = system: β-galactosidase in CMV-LacZ C2C12 myoblasts; assay: CMV-LacZ secondary screen in C2C12 myoblasts (β-Gal stabilizing assay); conditions: for CMV-LACZ in Myoblasts, value relative to DMSO: SU9516 analogs, C2C12 CMV-LacZ, N=2; for CMV-LACZ in Myoblasts (β-galactosidase activity relative to DMSO): CMV-LacZ C2C12 myoblasts
# Procedure, shortened: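 C2C12 myoblasts stably carrying a linearized CMV-driven LacZ construct, clone chosen by β-gal level in the myoblast FDG assay. Compounds tested in 96-well dose-response at 0.5, 1, 5, 10, 20 and 40 μM, N=2 replicates per point, to detect β-gal stabilization.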
structure (smiles),measurement,setting,value
O=C1Nc2ccccc2/C1=C\c1cccn1-c1ccc(OC(F)(F)F)cc1 [MLS000546982-01],"Burkin Assay in Myotubes, value relative to DMSO",[1]; 0.5 uM,1.048
same,"Burkin Assay in Myotubes, value relative to DMSO",[1]; 1 uM,1.038
same,"Burkin Assay in Myotubes, value relative to DMSO",[1]; 5 uM,1.145
same,"Burkin Assay in Myotubes, value relative to DMSO",[1]; 10 uM,0.9962
same,"Burkin Assay in Myotubes, value relative to DMSO",[1]; 20 uM,0.8556
same,"Burkin Assay in Myotubes, value relative to DMSO",[1]; 40 uM,0.7111
same,"CMV-LACZ in Myotubes, value relative to DMSO",[2]; 0.5 uM,1.0438
same,"CMV-LACZ in Myotubes, value relative to DMSO",[2]; 1 uM,0.8467
same,"CMV-LACZ in Myotubes, value relative to DMSO",[2]; 5 uM,1.0159
same,"CMV-LACZ in Myotubes, value relative to DMSO",[2]; 10 uM,1.1265
same,"CMV-LACZ in Myotubes, value relative to DMSO",[2]; 20 uM,1.0160
same,"CMV-LACZ in Myotubes, value relative to DMSO",[2]; 40 uM,1.3290
same,"Burkin Assay in Myoblasts, value relative to DMSO",[3]; 0.5 uM,0.8799
same,"Burkin Assay in Myoblasts, value relative to DMSO",[3]; 1 uM,1.155
same,"Burkin Assay in Myoblasts, value relative to DMSO",[3]; 5 uM,1.272
same,"Burkin Assay in Myoblasts, value relative to DMSO",[3]; 10 uM,1.078
same,"Burkin Assay in Myoblasts, value relative to DMSO",[3]; 20 uM,1.053
same,"Burkin Assay in Myoblasts, value relative to DMSO",[3]; 40 uM,0.8883
same,"CMV-LACZ in Myoblasts, value relative to DMSO",[4]; 0.5 uM,1.0877
same,"CMV-LACZ in Myoblasts, value relative to DMSO",[4]; 1 uM,1.2640
same,"CMV-LACZ in Myoblasts, value relative to DMSO",[4]; 5 uM,0.9273
same,"CMV-LACZ in Myoblasts, value relative to DMSO",[4]; 10 uM,1.0785
same,"CMV-LACZ in Myoblasts, value relative to DMSO",[4]; 20 uM,0.9512
same,"CMV-LACZ in Myoblasts, value relative to DMSO",[4]; 40 uM,1.3937
O=Nc1c(-c2c(O)[nH]c3cc(Br)ccc23)[nH]c2ccccc12 [NCGC00094112-04],"Burkin Assay in Myotubes, value relative to DMSO",[1]; 0.5 uM,0.7402
same,"Burkin Assay in Myotubes, value relative to DMSO",[1]; 1 uM,0.8159
same,"Burkin Assay in Myotubes, value relative to DMSO",[1]; 5 uM,0.7596
same,"Burkin Assay in Myotubes, value relative to DMSO",[1]; 10 uM,0.629
same,"Burkin Assay in Myotubes, value relative to DMSO",[1]; 20 uM,0.6813
same,"Burkin Assay in Myotubes, value relative to DMSO",[1]; 40 uM,0.35
same,"CMV-LACZ in Myotubes, value relative to DMSO",[2]; 0.5 uM,1.0409
same,"CMV-LACZ in Myotubes, value relative to DMSO",[2]; 1 uM,0.8864
same,"CMV-LACZ in Myotubes, value relative to DMSO",[2]; 5 uM,0.8123
same,"CMV-LACZ in Myotubes, value relative to DMSO",[2]; 10 uM,0.7933
same,"CMV-LACZ in Myotubes, value relative to DMSO",[2]; 20 uM,0.7190
same,"CMV-LACZ in Myotubes, value relative to DMSO",[2]; 40 uM,0.5420
same,"Burkin Assay in Myoblasts, value relative to DMSO",[3]; 0.5 uM,1.019
same,"Burkin Assay in Myoblasts, value relative to DMSO",[3]; 1 uM,0.9927
same,"Burkin Assay in Myoblasts, value relative to DMSO",[3]; 5 uM,0.5722
same,"Burkin Assay in Myoblasts, value relative to DMSO",[3]; 10 uM,0.4943
same,"Burkin Assay in Myoblasts, value relative to DMSO",[3]; 20 uM,0.4509
same,"Burkin Assay in Myoblasts, value relative to DMSO",[3]; 40 uM,0.3428
same,"CMV-LACZ in Myoblasts, value relative to DMSO",[4]; 0.5 uM,1.1721
same,"CMV-LACZ in Myoblasts, value relative to DMSO",[4]; 1 uM,1.1779
same,"CMV-LACZ in Myoblasts, value relative to DMSO",[4]; 5 uM,1.0309
same,"CMV-LACZ in Myoblasts, value relative to DMSO",[4]; 10 uM,1.0782
same,"CMV-LACZ in Myoblasts, value relative to DMSO",[4]; 20 uM,0.4403
same,"CMV-LACZ in Myoblasts, value relative to DMSO",[4]; 40 uM,0.3627
CCOC(=O)c1sc(=N)n(-c2ccc(OC)cc2)c1C [MLS000090135-01],"Burkin Assay in Myotubes, α7 integrin LacZ reporter signal relative to DMSO",[1]; 0.5 uM,1.042
same,"Burkin Assay in Myotubes, α7 integrin LacZ reporter signal relative to DMSO",[1]; 1 uM,0.9598
same,"Burkin Assay in Myotubes, α7 integrin LacZ reporter signal relative to DMSO",[1]; 5 uM,0.8747
same,"Burkin Assay in Myotubes, α7 integrin LacZ reporter signal relative to DMSO",[1]; 10 uM,0.9078
same,"Burkin Assay in Myotubes, α7 integrin LacZ reporter signal relative to DMSO",[1]; 20 uM,0.8015
same,"Burkin Assay in Myotubes, α7 integrin LacZ reporter signal relative to DMSO",[1]; 40 uM,0.8215
same,"CMV-LACZ in Myotubes, signal relative to DMSO",[2]; 0.5 uM,1.0155
same,"CMV-LACZ in Myotubes, signal relative to DMSO",[2]; 1 uM,1.1036
same,"CMV-LACZ in Myotubes, signal relative to DMSO",[2]; 5 uM,0.7503
same,"CMV-LACZ in Myotubes, signal relative to DMSO",[2]; 10 uM,1.0114
same,"CMV-LACZ in Myotubes, signal relative to DMSO",[2]; 20 uM,1.1100
same,"CMV-LACZ in Myotubes, signal relative to DMSO",[2]; 40 uM,1.1840
same,"Burkin Assay in Myoblasts, signal relative to DMSO",[3]; 0.5 uM,1.227
same,"Burkin Assay in Myoblasts, signal relative to DMSO",[3]; 1 uM,1.166
same,"Burkin Assay in Myoblasts, signal relative to DMSO",[3]; 5 uM,0.988
same,"Burkin Assay in Myoblasts, signal relative to DMSO",[3]; 10 uM,1.018
same,"Burkin Assay in Myoblasts, signal relative to DMSO",[3]; 20 uM,0.6029
same,"Burkin Assay in Myoblasts, signal relative to DMSO",[3]; 40 uM,0.3956
same,CMV-LACZ in Myoblasts (β-galactosidase activity relative to DMSO),[4]; 0.5 uM,1.0896
same,CMV-LACZ in Myoblasts (β-galactosidase activity relative to DMSO),[4]; 1 uM,0.9421
same,CMV-LACZ in Myoblasts (β-galactosidase activity relative to DMSO),[4]; 5 uM,0.9731
same,CMV-LACZ in Myoblasts (β-galactosidase activity relative to DMSO),[4]; 10 uM,0.9296
same,CMV-LACZ in Myoblasts (β-galactosidase activity relative to DMSO),[4]; 20 uM,0.6017
same,CMV-LACZ in Myoblasts (β-galactosidase activity relative to DMSO),[4]; 40 uM,0.3653
